Where “and” joins values, the source holds several entries; their conditions need not be identical. Equal entries are not always repeated.

For the test, the target named is cAMP and cAMP-inhibited cGMP 3',5'-cyclic phosphodiesterase 10A (Homo sapiens, UniProt Q9Y233). Put plainly: Enzyme Inhibition Assay: To check the inhibition profile, 5 μL of serial diluted compounds were incubated with 5 μL of diluted PDE10 enzyme (BPS Bioscience, San Diego, Calif.) or tissue homogenate in a 384-well polystyrene assay plate (Corning, Corning, N.Y.) for 30 min at room temperature. After incubation, 10 μL of diluted fluorescein labeled cAMP or cGMP substrate were added and incubated for 60 min at room temperature. The reaction was stopped by adding 60 μL of diluted binding reagents and plates were read on an Envision (Perkin Elmer, Waltham, Mass.) for time resolved fluorescence resonance energy transfer. The data were analyzed with GraphPad Prism (La Jolla, Calif.).
Chain of cAMP and cAMP-inhibited cGMP 3',5'-cyclic phosphodiesterase 10A (Q9Y233 whole entry): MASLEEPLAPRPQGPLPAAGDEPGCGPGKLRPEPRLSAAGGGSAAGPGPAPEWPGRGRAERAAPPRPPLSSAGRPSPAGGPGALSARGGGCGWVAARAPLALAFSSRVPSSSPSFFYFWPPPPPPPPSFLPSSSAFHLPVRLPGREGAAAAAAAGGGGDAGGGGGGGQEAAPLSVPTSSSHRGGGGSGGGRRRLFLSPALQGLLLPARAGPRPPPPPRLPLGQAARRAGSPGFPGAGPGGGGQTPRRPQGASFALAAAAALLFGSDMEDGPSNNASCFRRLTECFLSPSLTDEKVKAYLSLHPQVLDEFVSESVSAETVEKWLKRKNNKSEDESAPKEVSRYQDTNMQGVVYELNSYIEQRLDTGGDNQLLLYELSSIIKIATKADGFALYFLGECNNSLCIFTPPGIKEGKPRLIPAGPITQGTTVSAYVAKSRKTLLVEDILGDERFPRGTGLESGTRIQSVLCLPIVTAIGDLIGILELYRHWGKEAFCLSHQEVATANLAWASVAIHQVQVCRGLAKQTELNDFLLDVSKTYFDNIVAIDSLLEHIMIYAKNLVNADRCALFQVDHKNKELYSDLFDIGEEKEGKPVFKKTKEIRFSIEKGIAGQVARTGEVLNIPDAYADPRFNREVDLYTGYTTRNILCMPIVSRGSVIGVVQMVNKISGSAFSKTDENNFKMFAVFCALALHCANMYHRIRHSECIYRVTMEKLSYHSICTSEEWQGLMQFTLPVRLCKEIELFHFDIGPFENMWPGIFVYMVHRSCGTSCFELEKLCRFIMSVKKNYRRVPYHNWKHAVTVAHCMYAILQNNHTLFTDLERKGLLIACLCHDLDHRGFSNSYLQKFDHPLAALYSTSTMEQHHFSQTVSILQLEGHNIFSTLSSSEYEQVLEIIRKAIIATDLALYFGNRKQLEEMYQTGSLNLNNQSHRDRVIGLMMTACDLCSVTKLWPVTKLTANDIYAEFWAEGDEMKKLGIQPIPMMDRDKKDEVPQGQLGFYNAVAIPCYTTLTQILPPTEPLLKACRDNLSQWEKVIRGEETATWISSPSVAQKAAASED
Take `O=C(c1ccc(Oc2ncccc2[C@@H]2CCCO2)cc1)c1nc2ccccc2[nH]1`: the IC50 (commonly the concentration that inhibits the measured activity by half) was 4.97 nM and 13.3 nM. The compound `COc1cc(-c2cccnc2Oc2ccc(Nc3nc4ccccc4s3)cc2)ccn1` returned an IC50 of 11.9 nM.

As to `COc1cccnc1-c1cccnc1Oc1ccc(Nc2nc3ccccc3s2)cc1`, the half-maximal inhibitory concentration (IC50) amounted to 232 nM.

In turn, `Cc1cc(-c2cccnc2Oc2ccc(C(=O)c3nc4ccccc4[nH]3)cc2)ccn1` displayed an IC50 of 0.76 nM. The compound `O=C(c1ccc(Oc2ncccc2C2CCOCC2)cc1)c1nc2ncccc2[nH]1` registered a half-maximal inhibitory concentration (IC50) of 1.34 nM. The result for `c1cnc(Oc2ccc(Nc3nc4ccccc4s3)cc2)c(-c2ccnc3ccccc23)c1` reads 7.22 nM; that for `N#Cc1ccc2[nH]c(Nc3ccc(Oc4ncccc4C(F)(F)F)cc3)nc2c1`, 112 nM; that for `C[C@H](Cc1ccccn1)NC(=O)c1cccnc1Oc1ccc(C(=O)c2nc3ccccc3[nH]2)cc1`, 6.83 nM. Compound `COc1cccc(-c2cccnc2Oc2ccc(Nc3nc4ccccc4s3)cc2)n1` gave an IC50 of 164 nM. With `O=C(c1ccc(Oc2ncccc2[C@@H]2CC[C@H](CO)C2)cc1)c1nc2ccccc2[nH]1`, the IC50 was determined as 0.312 nM.

Compound `CC(C)c1ccc(Cn2c(Nc3ccc(Oc4ncccc4C4CCOCC4)cc3)nc3ccccc32)cc1` showed an IC50 of 31.9 nM. The same measure for `O=C1C=C(c2cccnc2Oc2ccc(C(=O)c3nc4ccccc4[nH]3)cc2)CC1`: 1.01 nM; for `O[C@H]1CC[C@@H](c2cccnc2Oc2ccc(Nc3nc4ccccc4s3)cc2)C1`: 2.54 nM. Compound `COc1ccncc1-c1cccnc1Oc1ccc(Nc2nc3ccccc3s2)cc1` displayed an IC50 of 0.902 nM. The same measure for `C[C@@H](CNC(=O)c1cccnc1Oc1ccc(C(=O)c2nc3ccccc3[nH]2)cc1)c1ccccc1`: 2.69 nM; for `CN1C[C@@H](c2cccnc2Oc2ccc(Nc3nc4ccccc4s3)cc2)CC1=O`: 0.195 nM; for `O=C(c1ccc(Oc2ncccc2[C@H]2CC[C@@H](O)CC2)cc1)c1nc2ccccc2[nH]1`: 0.308 nM. `COc1ncccc1-c1cccnc1Oc1ccc(Nc2nc3ccccc3s2)cc1` registered a half-maximal inhibitory concentration (IC50) of 2.54 nM. `C1=C(c2cccnc2Oc2ccc(Nc3nc4ccccc4s3)cc2)CCOC1` registered an IC50 of 2.21 nM.

Compound `Cc1ccc(CCNC(=O)c2cccnc2Oc2ccc(C(=O)c3nc4ccccc4[nH]3)cc2)cc1` had an IC50 of 3.11 nM.

`C[C@]1(O)CC[C@@H](c2cccnc2Oc2ccc(C(=O)c3nc4ccccc4[nH]3)cc2)CC1` registered an IC50 of 1.63 nM. On to `c1ccc(-n2ncc3cc(Oc4ncccc4C4CCCCC4)ccc32)nc1`, for which the IC50 worked out at 417 nM. The result for `FC(F)(F)c1cc(-c2cccnc2Oc2ccc(Nc3nc4ccccc4[nH]3)cc2)ccn1` reads 36.7 nM; that for `CC(=O)N1CCCC[C@@H]1c1cccnc1Oc1ccc(C(=O)c2nc3ccccc3[nH]2)cc1`, 0.0645 nM.

For `CC(C)(C)OC(=O)N1CC=C(c2cccnc2Oc2ccc(Nc3nc4ccccc4s3)cc2)CC1`, the IC50 was 44.4 nM. For `COc1ccncc1-c1cccnc1Oc1ccc(C(=O)c2nc3ccccc3[nH]2)cc1`, the IC50 worked out at 0.0725 nM. Compound `COc1cc(-c2cccnc2Oc2ccc(C(=O)c3nc4ccccc4[nH]3)cc2)ccn1` returned an IC50 of 1.61 nM. The same measure for `Cc1cnc(Oc2ccc(C(=O)c3nc4ccccc4[nH]3)cc2)c(-c2ccnc(C)c2)c1`: 1.38 nM; for `c1cnc(Oc2ccc(Nc3nc4ccccc4s3)cc2)c(-c2cncnc2)c1`: 0.303 nM. `c1cnc(Oc2ccc(Nc3nc4ccccc4s3)cc2)c(-c2ccc3c(c2)CCO3)c1` yielded an IC50 of 42.4 nM. The compound `COc1ncc(-c2ccnc(F)c2)c(Oc2ccc(C(=O)c3nc4ccccc4[nH]3)cc2)n1` came in with an IC50 of 22.9 nM.

`c1cnc(Oc2ccc(Nc3nc4ccccc4s3)cc2)c([C@@H]2CCCOC2)c1` yielded an IC50 of 2.49 nM. `C[C@]1(O)CCC[C@H](c2cccnc2Oc2ccc(Nc3nc4ccccc4s3)cc2)C1`: the IC50 turned out to be 6.87 nM. Turning to `O=C(c1ccc(Oc2ncccc2Br)cc1)c1nc2ccccc2n1C1CCCCO1` (stereo not given), the IC50 was 1610 nM. With `COc1ccc(-c2cccnc2Oc2ccc(C(=O)c3nc4ccccc4[nH]3)cc2)c(OC)n1`, the IC50 was 0.694 nM. For the compound `CC(=O)N1CCC(c2cccnc2Oc2ccc(Nc3nc4ccccc4s3)cc2)CC1`, the IC50 was found to be 0.175 nM.

`COc1cncc(-c2cccnc2Oc2ccc(C(=O)c3nc4ccccc4[nH]3)cc2)c1` came in with an IC50 of 0.622 nM.

As for `COc1ccnc(-c2cccnc2Oc2ccc(C(=O)c3nc4ccccc4n3C)cc2)c1`, the IC50 worked out at 1.79 nM. `C[C@]1(O)CC[C@@H](c2cccnc2Oc2ccc(C(=O)c3nc4ccccc4[nH]3)cc2)C1` came in with a concentration for half-maximal inhibition (IC50) of 0.763 nM. With `COc1cncc(-c2cccnc2Oc2ccc(Nc3nc4ccccc4s3)cc2)c1`, the IC50 came to 4.08 nM.

Take `O=C(c1ccc(Oc2ncccc2N2CCCC2)cc1)c1nc2ccccc2[nH]1`: the IC50 was determined as 14 nM. The same measure for `C[C@]1(O)CCC[C@H](c2cccnc2Oc2ccc(C(=O)c3nc4ccccc4[nH]3)cc2)C1`: 1.14 nM; for `CC(=O)N1CC=C(c2cccnc2Oc2ccc(Nc3nc4ccccc4s3)cc2)CC1`: 0.363 nM. For `Cn1c(C(=O)c2ccc(Oc3ncccc3C3(F)CCOCC3)cc2)nc2ccccc21`, the IC50 turned out to be 0.749 nM.

In the case of `C[C@]1(O)CCCC(c2cccnc2Oc2ccc(C(=O)c3nc4ccccc4[nH]3)cc2)C1` (stereo not given in full), the IC50 amounted to 1.22 nM. `N#Cc1cccc(-c2cccnc2Oc2ccc(Nc3nc4ccccc4s3)cc2)c1` displayed an IC50 of 18.3 nM.

For `C[C@@]1(O)CC[C@@H](c2cccnc2Oc2ccc(Nc3nc4ccccc4s3)cc2)C1`, the IC50 stood at 10.7 nM. As to `O=C(c1ccc(Oc2ncccc2[C@@H]2CCC[C@@H](O)C2)cc1)c1nc2ccccc2[nH]1`, the IC50 is 0.145 nM and 0.585 nM. `c1cnc(Oc2ccc(Nc3nc4ccccc4s3)cc2)c([C@H]2CCOC2)c1` showed an IC50 of 0.865 nM. On to `C1=C(c2cccnc2Oc2ccc(Nc3nc4ccccc4s3)cc2)CCCC1`, for which the IC50 came out at 72 nM. The same measure for `COc1cnccc1-c1cccnc1Oc1ccc(C(=O)c2nc3ccccc3[nH]2)cc1`: 0.261 nM. `O[C@H]1CC[C@H](c2cccnc2Oc2ccc(Nc3nc4ccccc4s3)cc2)CC1` registered an IC50 of 6.38 nM. `O=C(c1ccc(Oc2ncccc2Br)cc1)c1nc2ccccc2s1` showed an IC50 of 3940 nM. Compound `Cc1cnc(Oc2ccc(C(=O)c3nc4ccccc4n3C)cc2)c(-c2ccnc(C)c2)c1` returned an IC50 of 1.14 nM. Regarding `O=C(c1ccc(Oc2ncccc2-c2ccncn2)cc1)c1nc2ccccc2[nH]1`, the IC50 was found to be 7.45 nM. `O=C(c1ccc(Oc2ncccc2[C@@H]2CCOC2)cc1)c1nc2ccccc2[nH]1` returned an IC50 of 0.92 nM. In the case of `FC(F)(F)c1cc(-c2cccnc2Oc2ccc(Cc3nc4ccccc4[nH]3)cc2)ccn1`, the IC50 came to 118 nM.

The compound `c1cnc(Oc2ccc(Nc3nc4ccccc4s3)cc2)c([C@H]2CCCO2)c1` returned an IC50 of 54.2 nM.

With `O=C(c1ccc(Oc2ncccc2[C@@H]2CC[C@](O)(C(F)(F)F)C2)cc1)c1nc2ccccc2[nH]1`, the IC50 worked out at 1.59 nM. Take `C[C@H](Cc1ccc(F)cc1)NC(=O)c1cccnc1Oc1ccc(C(=O)c2nc3ccccc3[nH]2)cc1`: the IC50 worked out at 0.135 nM. Regarding `COC[C@H](Cc1ccccc1)NC(=O)c1cccnc1Oc1ccc(C(=O)c2nc3ccccc3[nH]2)cc1`, the IC50 came out at 1.64 nM. Consider `Cn1c(C(=O)c2ccc(Oc3ncccc3C3CCOCC3)cc2)nc2ccccc21`, for which the IC50 stood at 0.509 nM. The same measure for `FC(F)(c1ccc(Oc2ncccc2C2CCOCC2)cc1)c1nc2ccccc2[nH]1`: 11.6 nM; for `O=C(c1ccc(Oc2ncccc2C(=O)NC2(Cc3ccccc3)CC2)cc1)c1nc2ccccc2[nH]1`: 0.168 nM; for `O=C(c1ccc(Oc2ncccc2C2CCS(=O)(=O)CC2)cc1)c1nc2ccccc2[nH]1`: 0.631 nM. As to `O=C(c1ccc(Oc2ncccc2C(=O)NC2Cc3ccccc3C2)cc1)c1nc2ccccc2[nH]1`, the IC50 was found to be 56.7 nM. The compound `O=C(c1ccc(Oc2ncccc2C2CCNCC2)cc1)c1nc2ccccc2[nH]1` had an IC50 of 2.07 nM.

Turning to `COc1ccnc(-c2cccnc2Oc2ccc(C(=O)c3nc4ccccc4[nH]3)cc2)c1`, the IC50 is 4.11 nM.

`O=C(c1ccc(Oc2ncccc2C(=O)NCCc2ccccc2)cc1)c1nc2ccccc2[nH]1` registered an IC50 of 2.72 nM. `O=C(c1ccc(Oc2ncccc2-c2cnn(C3CC3)c2)cc1)c1nc2ccccc2[nH]1` had an IC50 of 23 nM. `c1cncc(-c2cccnc2Oc2ccc(Nc3nc4ccccc4[nH]3)cc2)c1` displayed a 50% inhibitory concentration (IC50) of 0.179 nM. Take `O=C(c1ccc(Oc2ncccc2[C@H]2CC[C@@H](CO)C2)cc1)c1nc2ccccc2[nH]1`: the IC50 came to 0.212 nM.

For `CC(=O)N1CC=C(c2cccnc2Oc2ccc(C(=O)c3nc4ccccc4[nH]3)cc2)CC1`, the IC50 was 0.194 nM. On to `O=C(c1ccc(Oc2ncccc2[C@H]2CC[C@@](O)(C(F)(F)F)C2)cc1)c1nc2ccccc2[nH]1`, for which the IC50 worked out at 0.728 nM.

In the case of `Cc1ccc(-c2cccnc2Oc2ccc(C(=O)c3nc4ccccc4[nH]3)cc2)cn1`, the IC50 came out at 0.177 nM. For the compound `O[C@H]1CC[C@@H](c2cccnc2Oc2ccc(Nc3nc4ccccc4s3)cc2)CC1`, the IC50 turned out to be 1.63 nM.

As to `C[C@]1(O)CC[C@H](c2cccnc2Oc2ccc(C(=O)c3nc4ccccc4[nH]3)cc2)CC1`, the IC50 was 1.42 nM. Compound `O=C(c1ccc(Oc2ncccc2N2CCOCC2)cc1)c1nc2ccccc2s1` showed an IC50 of 98.8 nM. Consider `C1=CO[C@H](c2cccnc2Oc2ccc(Nc3nc4ccccc4s3)cc2)CC1`, for which the IC50 is 22.3 nM.

`Cn1c(C(=O)c2ccc(Oc3ncccc3-c3ccnc(F)c3)cc2)nc2ccccc21` registered an IC50 of 10.3 nM.

Compound `O=C(c1ccc(Oc2ncccc2[C@H]2CCC[C@@H](O)C2)cc1)c1nc2ccccc2[nH]1` returned a 50% inhibitory concentration (IC50) of 0.99 nM. Take `O=C(c1ccc(Oc2ncccc2N2CCOCC2)cc1)c1nc2ccccc2[nH]1`: the IC50 worked out at 1.59 nM. The same measure for `O[C@@H]1CCC[C@H](c2cccnc2Oc2ccc(Nc3nc4ccccc4s3)cc2)C1`: 2.21 nM; for `COc1cnccc1-c1cccnc1Oc1ccc(C(=O)c2nc3ccccc3n2C)cc1`: 0.121 nM. The same measure for `COC[C@H](C)NC(=O)c1cccnc1Oc1ccc(C(=O)c2nc3ccccc3[nH]2)cc1`: 12.8 nM.

Source of the values: ChEMBL document CHEMBL3638462, “Pyridine and pyrimidine derivatives as phosphodiesterase 10 inhibitors” (2014).
